This is an account of results in ChEMBL document CHEMBL1135288, “Anthranilate sulfonamide hydroxamate TACE inhibitors. Part 1: Structure-based design of novel acetylenic P1' groups” (Bioorg Med Chem Lett, 2002).

SMILES strings stand for the structures.

In experiment [1] the target is T1, Interstitial collagenase (Homo sapiens) (UniProt P03956).
T1 sequence (whole entry): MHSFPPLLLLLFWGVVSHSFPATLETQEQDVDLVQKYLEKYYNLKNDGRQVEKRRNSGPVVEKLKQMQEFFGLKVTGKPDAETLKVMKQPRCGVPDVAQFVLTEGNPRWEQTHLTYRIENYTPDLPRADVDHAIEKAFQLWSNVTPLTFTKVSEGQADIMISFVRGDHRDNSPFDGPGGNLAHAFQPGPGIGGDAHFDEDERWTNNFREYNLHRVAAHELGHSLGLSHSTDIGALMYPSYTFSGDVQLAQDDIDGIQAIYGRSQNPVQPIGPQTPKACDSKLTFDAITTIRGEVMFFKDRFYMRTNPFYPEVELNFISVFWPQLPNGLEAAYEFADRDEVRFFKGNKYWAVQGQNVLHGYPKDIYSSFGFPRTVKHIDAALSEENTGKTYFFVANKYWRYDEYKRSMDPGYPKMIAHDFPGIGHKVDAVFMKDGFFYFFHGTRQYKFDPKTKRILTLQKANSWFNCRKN
Briefly: Inhibition of Matrix metalloprotease-1 at 10 uM.

Experiment [2] concerns the target Disintegrin and metalloproteinase domain-containing protein 17 (Sus scrofa, UniProt O77636). Briefly: Inhibition of porcine Tumor necrosis factor alpha converting enzyme.
The target in a further experiment is T2, Interstitial collagenase (Homo sapiens, UniProt P03956).
T2 sequence (P03956 whole entry): T1 sequence (whole entry)
Nature of the experiment: Inhibition of Matrix metalloprotease-1.

Experiment [3] addresses Matrix metalloproteinase-9 (Homo sapiens, UniProt P14780). Nature of the experiment: Inhibition of Matrix metalloprotease-9.
Another experiment deals with Collagenase 3 (Homo sapiens, UniProt P45452). Briefly: Inhibition of Matrix metalloprotease-13.

Disintegrin and metalloproteinase domain-containing protein 17, sequence (O77636 whole entry, the tested form may be a part): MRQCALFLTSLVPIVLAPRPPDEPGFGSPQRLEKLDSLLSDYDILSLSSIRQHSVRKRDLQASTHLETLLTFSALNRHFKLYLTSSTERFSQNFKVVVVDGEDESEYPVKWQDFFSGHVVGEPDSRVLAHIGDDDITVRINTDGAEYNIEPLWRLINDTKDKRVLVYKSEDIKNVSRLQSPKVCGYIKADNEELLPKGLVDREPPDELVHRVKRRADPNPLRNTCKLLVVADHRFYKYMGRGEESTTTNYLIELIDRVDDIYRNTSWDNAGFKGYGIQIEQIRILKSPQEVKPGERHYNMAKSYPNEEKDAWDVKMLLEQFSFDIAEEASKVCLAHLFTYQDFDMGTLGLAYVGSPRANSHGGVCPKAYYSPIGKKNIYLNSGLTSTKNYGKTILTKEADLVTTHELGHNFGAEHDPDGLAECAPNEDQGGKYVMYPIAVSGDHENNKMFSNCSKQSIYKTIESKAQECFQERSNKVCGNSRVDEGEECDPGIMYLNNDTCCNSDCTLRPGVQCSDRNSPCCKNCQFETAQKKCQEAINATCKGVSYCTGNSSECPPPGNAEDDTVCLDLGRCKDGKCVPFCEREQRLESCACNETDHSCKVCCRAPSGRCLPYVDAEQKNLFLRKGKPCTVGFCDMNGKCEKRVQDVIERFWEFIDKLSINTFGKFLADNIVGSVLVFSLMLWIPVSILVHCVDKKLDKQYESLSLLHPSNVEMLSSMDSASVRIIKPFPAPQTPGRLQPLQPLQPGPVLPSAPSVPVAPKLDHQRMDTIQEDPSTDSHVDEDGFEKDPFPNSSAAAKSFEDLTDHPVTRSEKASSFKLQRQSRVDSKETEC
Matrix metalloproteinase-9, sequence (P14780 whole entry): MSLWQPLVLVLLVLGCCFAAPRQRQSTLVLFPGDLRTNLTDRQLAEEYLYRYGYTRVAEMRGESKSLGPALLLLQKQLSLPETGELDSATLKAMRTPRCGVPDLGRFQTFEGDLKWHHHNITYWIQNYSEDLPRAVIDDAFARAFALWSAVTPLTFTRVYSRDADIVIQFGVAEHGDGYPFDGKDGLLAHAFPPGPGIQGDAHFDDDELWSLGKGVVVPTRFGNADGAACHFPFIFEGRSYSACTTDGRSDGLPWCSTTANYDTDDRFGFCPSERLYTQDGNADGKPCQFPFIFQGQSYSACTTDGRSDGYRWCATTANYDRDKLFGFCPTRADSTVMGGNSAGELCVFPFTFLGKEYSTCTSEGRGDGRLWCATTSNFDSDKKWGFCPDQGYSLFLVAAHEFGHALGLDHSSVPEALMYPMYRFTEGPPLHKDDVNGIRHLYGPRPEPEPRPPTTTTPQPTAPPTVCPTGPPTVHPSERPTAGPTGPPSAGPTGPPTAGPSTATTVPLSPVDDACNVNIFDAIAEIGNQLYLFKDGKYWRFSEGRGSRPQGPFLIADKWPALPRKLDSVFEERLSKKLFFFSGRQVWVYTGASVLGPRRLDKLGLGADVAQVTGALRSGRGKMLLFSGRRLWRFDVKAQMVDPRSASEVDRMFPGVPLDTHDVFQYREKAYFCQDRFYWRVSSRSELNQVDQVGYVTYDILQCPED

On to `CCCCC#CCOc1ccc(S(=O)(=O)N(C)c2c(C)cc(Br)cc2C(=O)NO)cc1`, for which the inhibition in experiment [1] turned out to be 53%.

With `C#CCOc1ccc(S(=O)(=O)N(C)c2c(C)cc(Br)cc2C(=O)NO)cc1`, in experiment [2], half-maximal inhibition (IC50) was put at 11 nM.

As to `CCCCOc1ccc(S(=O)(=O)N(C)c2c(C)cc(Br)cc2C(=O)NO)cc1`, the half-maximal inhibitory concentration (IC50) is 2490 nM at Interstitial collagenase, 21 nM in experiment [3], 68 nM against Collagenase 3 and 67 nM in experiment [2].

By inhibition is commonly meant the drop in the measured response relative to a control, in per cent. Read a high inhibition as a response far below the control. For orientation: IC50 means the concentration that inhibits the measured activity by half. The low end stands for higher potency, the high end for lower potency.
